# Test results published in PubChem BioAssay AID1963825 (Molecular Pharmacology Branch, DTP, NCI, 2024).
# Assay: Anticancer human tumor 997537-175-T-J1-PDC patient-derived colon adenocarcinoma cell line growth inhibition [POLQ]
# Settings: 997537-175-T-J1-PDC complex spheroid viability, combination with POLQ inhibitors; for IC50: curve of first compound; for viability, T/C: stronger effect = lower value
# How it was run: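 Three-cell-type spheroids modelling solid tumor plus stroma served as the readout system; POL inhibitors were tested individually and in combination, concentration ranges set by clinical Cmax where known.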
# [1] = second compound 0.0316 µM, first compound 0.0316 µM
# [2] = second compound 0.0316 µM, first compound 0.1 µM
# [3] = second compound 0.0316 µM, first compound 0.316 µM
# [4] = second compound 0.0316 µM, first compound 1 µM
# [5] = second compound 0.0316 µM, first compound 3.16 µM
# [6] = second compound 0.0316 µM, first compound 10 µM
# [7] = second compound 0.1 µM, first compound 0.0316 µM
# [8] = second compound 0.1 µM, first compound 0.1 µM
# [9] = second compound 0.1 µM, first compound 0.316 µM
# [10] = second compound 0.1 µM, first compound 1 µM
# [11] = second compound 0.1 µM, first compound 3.16 µM
# [12] = second compound 0.1 µM, first compound 10 µM
# [13] = second compound 0.316 µM, first compound 0.0316 µM
# [14] = second compound 0.316 µM, first compound 0.1 µM
# [15] = second compound 0.316 µM, first compound 0.316 µM
# [16] = second compound 0.316 µM, first compound 1 µM
# [17] = second compound 0.316 µM, first compound 3.16 µM
# [18] = second compound 0.316 µM, first compound 10 µM
# [19] = second compound 1 µM, first compound 0.0316 µM
# [20] = second compound 1 µM, first compound 0.1 µM
# [21] = second compound 1 µM, first compound 0.316 µM
# [22] = second compound 1 µM, first compound 1 µM
# [23] = second compound 1 µM, first compound 3.16 µM
# [24] = second compound 1 µM, first compound 10 µM
# [25] = second compound 3.16 µM, first compound 0.0316 µM
# [26] = second compound 3.16 µM, first compound 0.1 µM
# [27] = second compound 3.16 µM, first compound 0.316 µM
# [28] = second compound 3.16 µM, first compound 1 µM
# [29] = second compound 3.16 µM, first compound 3.16 µM
# [30] = second compound 3.16 µM, first compound 10 µM
# [31] = second compound 10 µM, first compound 0.0316 µM
# [32] = second compound 10 µM, first compound 0.1 µM
# [33] = second compound 10 µM, first compound 0.316 µM
# [34] = second compound 10 µM, first compound 1 µM
# [35] = second compound 10 µM, first compound 3.16 µM
# [36] = second compound 10 µM, first compound 10 µM
# 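Note: luminescence signal used as a surrogate for viable cells; spheroids exposed to drugs for seven days before readout.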
compound,measurement,setting,value
CNCc1ccc(-c2[nH]c3cc(F)cc4c3c2CCNC4=O)cc1 + COC1C(OC(N)=O)C(O)C(Oc2ccc3c(O)c(NC(=O)c4ccc(O)c(CC=C(C)C)c4)c(=O)oc3c2C)OC1(C)C,IC50,second compound 0.0316 µM,> 10 µM
same,IC50,second compound 0.1 µM,> 10 µM
same,IC50,second compound 0.316 µM,> 10 µM
same,IC50,second compound 1 µM,> 10 µM
same,IC50,second compound 3.16 µM,> 10 µM
same,IC50,second compound 10 µM,> 10 µM
same,"viability, T/C",[1],104%
same,"viability, T/C",[2],96.7%
same,"viability, T/C",[3],90.3%
same,"viability, T/C",[4],97.5%
same,"viability, T/C",[5],101%
same,"viability, T/C",[6],104%
same,"viability, T/C",[7],102%
same,"viability, T/C",[8],97%
same,"viability, T/C",[9],80.2%
same,"viability, T/C",[10],97.9%
same,"viability, T/C",[11],103%
same,"viability, T/C",[12],106%
same,"viability, T/C",[13],100%
same,"viability, T/C",[14],101%
same,"viability, T/C",[15],93.6%
same,"viability, T/C",[16],87%
same,"viability, T/C",[17],95.5%
same,"viability, T/C",[18],78.3%
same,"viability, T/C",[19],94.7%
same,"viability, T/C",[20],101%
same,"viability, T/C",[21],101%
same,"viability, T/C",[22],92.8%
same,"viability, T/C",[23],99.3%
same,"viability, T/C",[24],84.1%
same,"viability, T/C",[25],97.8%
same,"viability, T/C",[26],98.1%
same,"viability, T/C",[27],104%
same,"viability, T/C",[28],101%
same,"viability, T/C",[29],85.8%
same,"viability, T/C",[30],86.8%
same,"viability, T/C",[31],99.5%
same,"viability, T/C",[32],95.9%
same,"viability, T/C",[33],105%
same,"viability, T/C",[34],96.6%
same,"viability, T/C",[35],97.5%
same,"viability, T/C",[36],90.3%
O=C(c1cc(Cc2n[nH]c(=O)c3ccccc23)ccc1F)N1CCN(C(=O)C2CC2)CC1 + COC1C(OC(N)=O)C(O)C(Oc2ccc3c(O)c(NC(=O)c4ccc(O)c(CC=C(C)C)c4)c(=O)oc3c2C)OC1(C)C,IC50,second compound 0.0316 µM,> 10 µM
same,IC50,second compound 0.1 µM,> 10 µM
same,IC50,second compound 0.316 µM,> 10 µM
same,IC50,second compound 1 µM,> 10 µM
same,IC50,second compound 3.16 µM,> 10 µM
same,IC50,second compound 10 µM,> 10 µM
same,"viability, T/C",[1],98.2%
same,"viability, T/C",[2],99.8%
same,"viability, T/C",[3],99.1%
same,"viability, T/C",[4],88.3%
same,"viability, T/C",[5],93%
same,"viability, T/C",[6],101%
same,"viability, T/C",[7],73.7%
same,"viability, T/C",[8],91.7%
same,"viability, T/C",[9],101%
same,"viability, T/C",[10],106%
same,"viability, T/C",[11],99%
same,"viability, T/C",[12],101%
same,"viability, T/C",[13],105%
same,"viability, T/C",[14],112%
same,"viability, T/C",[15],98.9%
same,"viability, T/C",[16],96.8%
same,"viability, T/C",[17],100%
same,"viability, T/C",[18],107%
same,"viability, T/C",[19],100%
same,"viability, T/C",[20],98%
same,"viability, T/C",[21],110%
same,"viability, T/C",[22],92.7%
same,"viability, T/C",[23],77.1%
same,"viability, T/C",[24],96.3%
same,"viability, T/C",[25],101%
same,"viability, T/C",[26],95.1%
same,"viability, T/C",[27],94.7%
same,"viability, T/C",[28],86%
same,"viability, T/C",[29],95.8%
same,"viability, T/C",[30],96.9%
same,"viability, T/C",[31],102%
same,"viability, T/C",[32],78%
same,"viability, T/C",[33],104%
same,"viability, T/C",[34],98.5%
same,"viability, T/C",[35],91.7%
same,"viability, T/C",[36],107%
